Results: PMC9925730, “Controlled sequential in situ self-assembly and disassembly of a fluorogenic cisplatin prodrug for cancer theranostics” (Nature Communications, 2023)

Tested on: s.c. HeLa tumors
Test: Ex vivo FL imaging of resected tumors and organs
Type: in vivo, mice
Settings: 4 h post i.v. injection
Method: Supplementary Figure 27. Ex vivo FL imaging of tumors and main organs. (a) Representative ex vivo FL images (λex/em = 660/750 ± 50 nm) and (b) average FL intensities of tumors and main organs resected from P-CyPt- or PtIVNPs-treated HeLa […]
200 μL). After 4 h, the mice were sacrificed. Tumors (T) and main organs, including liver (L), heart (H), spleen (Sp), lung (Lu), kidney (K), stomach (St), and intestine (In) were resected, and the FL images were acquired on the IVIS spectrum imager. Values denote mean ± s.d. (n = 3 independent animals). Statistical difference was analyzed by Student’s two-sided t-test. Source data are provided as a Source Data file.
Supplementary Figure 28. FL imaging of resected tumor tissue slices. FL images of tumor tissue slices (10 μm thickness) resected from s.c. HeLa tumor-bearing mice at 4 h after i.v. injection of PBS (200 μL), PtIVNPs or P-CyPt (100 μM, 200 μL). Cell nuclei were co-stained with DAPI (blue). […]
μm. […] The fluorescence images of the MCTS were captured on a Leica TCS SP8 confocal laser scanning microscope, microscope (TCS SP8 STED 3X) with 10x/0.4 dry lens (Leica), and captured at RGB on a HyD detector (Leica Dmi8) under PI and Cy5.5 channels. […]
were sacrificed after 4 h. […] The fluorescence images of these organs and tumors were acquired with the IVIS Lumina XR III imaging system using a 660 nm excitation filter and a 750 ± 50 nm emission filter. […]

CC1(C)C(/C=C/C2=C3Oc4cc(OP(=O)(O)O)c(Cl)cc4C=C3CCC2)=[N+](CCCNC(=O)[C@@H](Cc2ccccc2)NC(=O)[C@@H](Cc2ccccc2)NC(=O)CCC(=O)[O][Pt]([NH2])([NH2])([OH])([Cl])[Cl])c2ccccc21 [P-CyPt]
ex vivo tumor FL intensity higher than Pt^IVNPs-treated tumors: ~ 3.2 fold
